This note sets out measurements from PMC10294771 (Journal of Enzyme Inhibition and Medicinal Chemistry, 2023).

The test system of the assay is HCT-116 cells. Kind of assay: In vitro cytotoxicity assay. Format: cell-based. The settings on record: Homo sapiens, HCT-116, 72 h, read-out: IC50, HCT-116 cell proliferation.

Turning to `C[C@H](O)C(=O)N1CCC(CCn2c(Sc3cc4c(cc3Br)OCO4)nc3c(N)ncnc32)CC1` [MPC-3100, (2S)-1-[4-(2-{6-amino-8-[(6-bromo-1,3-benzodioxol-5-yl)sulfanyl]-9H-purin-9-yl}ethyl)piperidin-1-yl]-2-hydroxypropan-1-one], the IC50 is 780 nM.
